In patent US7829528B2, “Compositions and methods for treating STAT-6 associated diseases or conditions” (The Rockefeller University, priority 2004, dated 2010):
Where no end group is shown, it is not given here.

Tests used:
[1] = test system: IL-13 mRNA; assay: Semiquantitative RT-PCR of IL-13 mRNA in splenocytes; assay type: cell-based, BALB/c mice; details: splenocytes cultured with ovalbumin plus peptide
Protocol: (§1) The levels of mRNA encoding IL-4, IL-13 and IFN-gamma were also evaluated by semiquantitative RT-PCR analysis. Ovalbumin-induced expression of both IL-4 and IL-13 mRNA was inhibited in splenocytes cultured with the STAT-6-IP and not the STAT-6-CP. […] The number of CD4+ T cells producing IL-4 was also quantified by intracellular cytokine staining. When splenocytes from ovalbumin-sensitized mice were cultured with ovalbumin, there was a significant increase in the number of CD4+ lymphocytes expressing IL-4 (Table 4). The increase in IL-4 expression was abrogated in splenocytes cultured with ovalbumin in the presence of the STAT-6-IP, while the STAT-6-CP had no effect.
(§2) Reverse transcriptase (RT)-PCR was used to monitor expression of mRNAs encoding IL-4, IL-13 and IFN-gamma. Materials for RNA extraction and RT-PCR were purchased from INVITROGEN™ Canada (Burlington, Ontario). Total RNA was extracted from splenocytes, treated with DNAse, and 1 μg of RNA was reverse transcribed into cDNA using SUPERSCRIPT™ II reverse transcriptase. […] PCR products were resolved by gel electrophoresis and visualized and quantified on a FLUORCHEM™ 8000 Imaging System (Alpha Innotech, San Leandro, Calif.) using ALPHAEASE™ software (Alpha Innotech). […]

[2] = test system: ovalbumin-sensitized mice; assay: Allergen-induced accumulation of granulocytes in bronchoalveolar lavage (BAL) fluid; assay type: in vivo, BALB/c mice
Source text: In the combined allergic rhinitis and asthma model, non-anaesthetized mice are locally sensitized with ovalbumin intranasally (i.n.), the primary route of allergen exposure in man (McCusker, et al. (2002) supra). Normal saline was used as a control. In both models sensitized mice produce ovalbumin-specific IgE and upon i.n. ovalbumin challenge, develop inflammation and eosinophilia in both the upper and lower airways as well as IL-13-dependent airway hyperresponsiveness (McCusker, et al. (2002) supra; Wang and McCusker (2005) Clin. Exp. Allergy 35(8):1104-11). Thus, in each model of allergic airway disease, the STAT-6-IP or control STAT-6-CP was given locally, i.n., to non-anaesthetized, ovalbumin-sensitized mice prior to each of five daily allergen challenges. Consistent with its ability to inhibit STAT-6-dependent activity in vitro, the STAT-6-IP inhibited allergen-induced accumulation of granulocytes in the lung, quantified in bronchoalveolar lavage (BAL) fluid, independent of the site of sensitization (Table 5).
Six-to-eight week-old male BALB/c mice were obtained from Harlan-Sprague Dawley (Indianapolis, Ind.) and were housed in a conventional animal facility. For each experimental condition, a minimum of 6-8 animals was used. Awake animals were sensitized five days per week for each of two weeks by instillation in each nostril of 5 μL 1% ovalbumin in PBS. Alternatively, animals were sensitized by two weekly systemic, i.p. injections of 0.025% ovalbumin mixed with 4 mg/mL Al(OH)3. Following two weeks rest, animals were challenged for five days by intranasal instillation of 1% ovalbumin. […] The tail vein was cannulated for drug administration and heart rate was monitored by EKG. […] Respiratory system resistance was measured. […] Methacholine was injected through the tail vein at dose of 10, 20, 40, 80, 160, 320 μg/kg and the maximal resistance and elastance were recorded. […] Six fields were counted, each encompassing 100 cells per slide, and means obtained.

[3] = test system: IFN-gamma mRNA; assay: Semiquantitative RT-PCR of IFN-gamma mRNA in splenocytes; assay type: cell-based, BALB/c mice; details: splenocytes cultured with ovalbumin plus peptide
Protocol: as §1, §2

YARAAARQARAGRGFVSTT [STAT-6-CP, STAT-6 Tyr-641 mutant, control peptide]
Inhibition of ovalbumin-induced expression of IL-13 mRNA [1]: not
Granulocytes/100 counted from BAL (±SEM) ([2]; dose response, 150 μg peptide, ovalbumin control 22.33, normal saline 5.00): 21.42 ± 1.56 Granulocytes/100 counted
Granulocytes/100 counted from BAL (±SEM) ([2]; i.n. ovalbumin sensitization, 50 microgram peptide i.n. prior to each ovalbumin challenge, ovalbumin control 26.73): 22.27 (±0.60) Granulocytes/100 counted
Granulocytes/100 counted from BAL (±SEM) ([2]; i.p. ovalbumin sensitization, 50 microgram peptide i.n. prior to each ovalbumin challenge, ovalbumin control 37.57): 34.75 (±0.68) Granulocytes/100 counted
Expression of IFN-gamma mRNA [3]: did not change
